Assay results published in patent US4547489A, “Conformationally restricted thymopentin-like compounds” (Ortho Pharmaceutical Corporation, priority 1984, dated 1985).
Where a SMILES comes first, the peptide text is derived from it. Where no end group is shown, it is not given here.

Experiments:
[1] = test system: cell membrane receptor of the intact CEM cell; test: Cyclic-GMP assay: induction of cyclic-GMP production in CEM cells; type: cell-based, human; settings: 4-5 min incubation at 37° C., radioimmunoassay of cyclic GMP
Source text: This biological activity is evidenced by an assay measuring induction of cyclic-GMP production in a human T-cell line in comparison with thymopoietin. The induction of c-GMP production by a test peptide in this assay indicates the ability of the test peptide to bind to the thymopoietin receptor site on the cell and induce thymopoietin-like biological activity.
This assay measures the ability of the test peptide to bind to the cell membrane receptor of the intact CEM cell and selectively stimulate production of cyclic-GMP, as does thymopoietin itself.
The CEM cell line was obtained from the American Type Culture Collection and was cultured in RPMI-1640 medium supplemented with 10% heat-inactivated fetal bovine serum, 10% heat-inactivated horse serum, 2mM L-glutamine, and 50 µg/ml gentamycin at 37° C. in a humid atmosphere containing 5 percent CO2, to a final density of 3-4×10^6 cells/ml. […]
The cells in TCA were then homogenized and sonicated to release cyclic nucleotide. The resulting suspension was centrifuged at 3000 g for 20 min at 4° C. and the resulting precipitate was dissolved in 0.1N NaOH and sonicated for a further 30 minutes, after which the protein content was determined by the method of Cadman, et al., Anal. Biochem., 96, 21-23 (1979). […]

[2] = test system: isolated thymopoietin cell surface receptor protein from CEM cells; settings: 2.3×10^-10 M 125I-Tp, 4 μg receptor protein, TP 37-45 nonapeptide present, 12 h

Molecule: CC(C)[C@@H]1NC(=O)[C@H](CC(=O)O)NC(=O)[C@H](CCCCN)NC(=O)[C@H](CCCNC(=N)N)NC(=O)[C@H](Cc2ccc(O)cc2)NC1=O [peptide 1, Cyclo-(Arg-Lys-Asp-Val-Tyr)] (cyclo(DVYRK))
- thymopentin-like activity (cyclic GMP induced by test peptide) [1]: demonstrated thymopentin-like activity

Molecule: CC(C)[C@@H]1NC(=O)[C@H](CC(=O)O)NC(=O)[C@H](CCCCN)NC(=O)[C@H](CCCNC(=N)N)NC(=O)CNC(=O)[C@H](Cc2ccc(O)cc2)NC1=O [peptide 2, Cyclo-[Arg-Lys-Asp-Val-Tyr-Gly]] (cyclo(DVYGRK))
- thymopentin-like activity (cyclic GMP induced by test peptide) [1]: demonstrated thymopentin-like activity

Molecule: C[C@H](N)C(=O)NCC(=O)N[C@H]1CSSC[C@@H](C(=O)O)NC(=O)[C@H](CO)NC(=O)[C@H]([C@@H](C)O)NC(=O)[C@H](Cc2ccccc2)NC(=O)[C@H]([C@@H](C)O)NC(=O)[C@H](CCCCN)NC(=O)[C@H](Cc2c[nH]c3ccccc23)NC(=O)[C@H](Cc2ccccc2)NC(=O)[C@H](Cc2ccccc2)NC(=O)[C@H](CC(N)=O)NC(=O)[C@H](CCCCN)NC1=O [somatostatin]
- displacement of 125I-thymopoietin (in words) [2]: no detectable displacement

Molecule: ACTH: adrenocorticotropic hormone (SYSMEHFRWGKPVGKKRRPVKVYPNGAEDESAEAFPLEF; Corticotropin; UniProt P01189 138-176, looked up)
- displacement of 125I-thymopoietin (in words) [2]: no detectable displacement

Molecule: CRF: corticotropin-releasing factor (SEEPPISLDLTFHLLREVLEMARAEQLAQQAHSNRKLMEII; ends and bridges not checked; UniProt P06850 154-194, looked up)
- displacement of 125I-thymopoietin (in words) [2]: no detectable displacement

Molecule: glucagon: comparison peptide in the receptor assay
- displacement of 125I-thymopoietin (in words) [2]: no detectable displacement

Molecule: growth hormone: comparison peptide in the receptor assay
- displacement of 125I-thymopoietin (in words) [2]: no detectable displacement

Molecule: ubiquitin
- displacement of 125I-thymopoietin (in words) [2]: no detectable displacement

Molecule: β-endorphin: comparison peptide in the receptor assay (YGGFMTSEKSQTPLVTLFKNAIIKNAYKKGE; Beta-endorphin; UniProt P01189 237-267, looked up)
- displacement of 125I-thymopoietin (in words) [2]: no detectable displacement
